Experimental data as given in patent US10905691B2, “Use of triazolo(4,5-d)pyrimidine derivatives for prevention and treatment of bacterial infection” (Universite de Liege, priority 2016, dated 2021).
Read-outs that look alike come from different tables or passages of the source.

Assays:
[1] = tested on: S. aureus MRSA (ATCC BAA-1556); assay: Killing curve (CFU counting); format: cell-based, Staphylococcus aureus
Procedure: S. aureus MRSA (ATCC BAA-1556) was grown overnight in brain heart infusion (BHI) medium, diluted 1:100 in fresh BHI, and incubated aerobically at 37° C. until bacteria growth reached a logarithmic phase (OD600=0.25-0.3).
Triafluocyl (Cayman Chemical, Item No. 15425) (20 μg/ml), Vancomycin (Sigma, 4 μg/ml or 10 μg/ml), Minocycline (Sigma, 8 μg/ml) or a solvent (DMSO) were added to 5 ml of S. aureus MRSA suspensions.
Bacterial growth for S. aureus MRSA was measured after different time intervals by counting the colony-forming units after plating appropriate culture dilutions on BHI agar plates.
S. aureus MRSA (ATCC BAA-1556) was grown overnight in BHI medium, then a 1:100 inoculum was diluted in fresh BHI and incubated aerobically at 37° C. until bacteria growth reached a logarithmic phase (OD600=0.25-0.3). The culture was split into two and challenged with 38 μM Fluometacyl (=18.2 μg/ml) or DMSO (Ctrl). Bacterial growth was measured after different time intervals by counting the colony-forming units after plating appropriate culture dilutions on BHI agar plates. (N=2)

[2] = tested on: Escherichia coli (ATCC 8739); assay: MIC determination with or without C12(ω7)Kβ12 (OAK); format: cell-based; conditions: for MIC: Escherichia coli, ATCC8739, in presence of 5 μg/ml OAK; for inhibition of Escherichia coli growth: taken alone at a concentration of 10 μg/ml
Description: (§1) Determination of Minimal Inhibitory Concentration (MIC) and Minimal Bactericidal Concentration (MBC) of Triafluocyl (purchased from Cayman Chemical, Item No. 15425) in presence of C12(ω7)Kβ12 (purchased from biomers.net, Germany) against Escherichia coli (ATCC 8739). The C12(ω7)Kβ12 was synthesized by solid-phase method as described by I. Radzishevsky in Antimicrobial Agents and Chemotherapy, May 2007 (1753-1759) (https://aac.asm.org/content/51/5/1753).
(§2) A single colony of Escherichia coli grown on a Luria-Bertani (LB) agar plate is resuspended and cultured in LB medium overnight (O/N) in aerobic conditions (37° C. with 220 rpm shaking in the New Brunswick Innova 4330 Shaker incubator). An aliquot of 100 μl such overnight Escherichia coli culture is diluted 1:50 in 5 ml Mueller-Hintom broth (MHB) and is incubated in aerobic conditions during 1 hour 30 minutes (OD=0.08-0.1) to reach the exponential phase of their growth curve. An inoculum of the exponentially growing Escherichia coli, corresponding to around 1×10^6 c.f.u./ml is then incubated in presence or absence of different concentrations of Triafluocyl in 2% DMSO with or without OAK for 24 hr in aerobic conditions (37° C. with 220 rpm shaking in the New Brunswick Innova 4330 Shaker incubator). Growth of Escherichia coli in each condition depicted in FIG. 13A is evaluated by reading the Optical Density of each culture at 600 nm (OD600) in a spectrophotometer (Victor-3, Perkin Elmer).
as §1, with “Fluometacyl (prepared according to WO 99/05143)” for “Triafluocyl (purchased from Cayman Chemical, Item No. 15425)”
as §2, with “An inoculum of the exponentially growing Escherichia coli, corresponding to around 1×10^6 c.f.u./ml is then incubated in presence or absence of different concentrations of Triafluocyl in 2% DMSO with or without OAK for 24 hr in aerobic conditions (37° C. with 220 rpm shaking in the New Brunswick Innova 4330 Shaker incubator).” left out, “14A” for “13A”

[3] = tested on: Staphylococcus epidermidis (ATCC 35984, also known as RP62A); assay: MIC determination (EUCAST, Mueller-Hinton broth); format: cell-based
Procedure: The Minimal Inhibitory Concentration (MIC) and the Minimal Bactericidal Concentration (MBC) of Triafluocyl were determined in Staphylococcus epidermidis (ATCC 35984, also known as RP62A) according to EUCAST (European Committee on Antimicrobial Susceptibility Testing) recommendations.
Briefly, a single colony grown on a Tryptic Soy Agar (TSA) plate was resuspended and cultured in Tryptic Soy Broth (TSB) overnight (O/N) in aerobic conditions (37° C. with 220 rpm shaking), next day a 1:50 inoculum in Mueller-Hinton broth (MHB) was incubated in aerobic conditions for 3 hr and an inoculum of 1:100 dilution, corresponding to 3×10^5 CFU/ml, was incubated in presence or absence of different concentrations of Triafluocyl in 1% DMSO (vehicle). After O/N growth the OD of each culture was measured at 600 nm in a spectrophotometer (OD600). The MIC represents the concentration at which there is no visible growth of bacteria, i.e. ΔOD at 600 nm equal to zero (blank is the medium alone).
The Minimal Inhibitory Concentration (MIC) and the Minimal Bactericidal Concentration (MBC) of Fluometacyl were determined on several gram-positive strains (Table 2) following EUCAST (European Committee on Antimicrobial susceptibility Testing) recommendations.
For MIC determination a single colony was resuspended and cultured in the appropriate bacteria-specific medium (TSB: Tryptic Soy Broth for S. aureus atcc 25904 and S. epidermidis and BHI: brain-heart infusion medium for all the other strains) overnight (O/N) in aerobic conditions (37° C. with 220 rpm shaking), next day a 1:100 inoculum was incubated in Mueller-Hinton broth (MHB) in aerobic conditions for 3 hr (OD600=0.08-0.1). A further inoculum, 1:300 dilution of the MHB culture, corresponding to 3×10^5 CFU/ml, was grown in presence or absence of different concentrations of Fluometacyl, 1% DMSO in MHB for 20 hr.

[4] = Staphylococcus epidermidis, ATCC35984, S. epidermidis, read-out: MIC

Question: Which “bactericidal activity against S. aureus MRSA (time-kill)” value ([1]; 38 μM (=18.2 μg/ml), FIG. 9) does the source give for `CCCSc1nc(N[C@@H]2C[C@H]2c2ccc(F)c(F)c2)c2nnn([C@@H]3C[C@H](O)[C@@H](O)[C@H]3O)c2n1` [Fluometacyl, (1S,2R,3S,4R)-4-[7-[[(1R,2S)-2-(3,4-Difluorophenyl)cyclopropyl]amino]-5-(propylthio)-3H-1,2,3-triazolo[4,5-d]pyrimidin-3-yl]-1,2,3-cyclopentanetriol] here?
Answer: bactericidal activity

Question: And the MIC [2]?
Answer: 5 µg/mL

Question: What about the “inhibition of Escherichia coli growth” value [2] of the same compound?
Answer: unable to inhibit E. coli growth

Question: And the MIC [3, 4]?
Answer: 30 µM

Question: Which results are given for `CCCSc1nc(N[C@@H]2C[C@H]2c2ccc(F)c(F)c2)c2nnn([C@@H]3C[C@H](OCCO)[C@@H](O)[C@H]3O)c2n1` [Triafluocyl, (1S,2S,3R,5S)-3-[7-[(1R,2S)-2-(3,4-difluorophenyl)cyclopropylamino]-5-(propylthio)-3H-[1,2,3]-triazolo[4,5-d]pyrimidin-3-yl]-5-(2-hydroxyethoxy)-1,2-cyclopentanediol]?
Answer: effect on S. aureus MRSA viable count after the first two hours ([1]; Triafluocyl 20 μg/ml, Vancomycin 10-fold MIC, Minocycline 8-fold MIC, FIG. 8A): decrease of S. aureus MRSA viable count; MIC [2]: 5 µg/mL; inhibition of Escherichia coli growth [2]: unable to inhibit Escherichia coli growth; MIC ([3]; S. epidermidis): 15 µg/mL; MIC [3, 4]: 12 ± 3 µg/mL
